Reference: PubChem BioAssay (NCI)
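Protocol summary: plate cells (96-well), add compound at 5 concentrations, incubate 48 h, interpolate endpoints linearly. Definition used: TGI = concentration required for complete inhibition of growth.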 *1 amine or outer side, *2 acyl side, *3 side chain or, on linkers, in order; H or OH if unused. Where a SMILES comes first, the peptide text is derived from it. The star is where a group is joined. γGlu = O=C(O)[CH](CCC(=O)[*:2])N[*:1]; Cbz = O=C(OCc1ccccc1)*; NHOH = ON*

Legend:
Assay in all cases: growth of human tumour cells (NCI), 48 h
[1] = system: LOX IMVI melanoma
[2] = system: SNB-75 CNS
[3] = system: MDA-MB-231 breast
[4] = system: HCT-15 colon
[5] = system: SN12C renal
[6] = system: TK-10 renal
[7] = system: MCF7 breast
[8] = system: SK-MEL-28 melanoma
[9] = system: MALME-3M melanoma
[10] = system: OVCAR-5 ovarian
[11] = system: RXF 393 renal
[12] = system: UACC-62 melanoma
[13] = system: SF-295 CNS
[14] = system: IGROV1 ovarian

SMILES | TGI [1] [µM] | TGI [2] [µM] | TGI [3] [µM] | TGI [4] [µM] | TGI [5] [µM] | TGI [6] [µM] | TGI [7] [µM] | TGI [8] [µM] | TGI [9] [µM] | TGI [10] [µM] | TGI [11] [µM] | TGI [12] [µM] | TGI [13] [µM] | TGI [14] [µM]
CSC(=Nc1ccccc1)c1c(C)[nH]n(-c2ccccc2)c1=O | > 100 | > 100 | > 100 | > 100 | > 100 | > 100 | > 100 | > 100 | > 100 | > 100 | > 100 | > 100 |  | 
O=[N+]([O-])C(/C(Cl)=C(/Cl)N1CCOCC1)=C1\Nc2ccccc2O1 |  | > 100 | > 100 | > 100 | > 100 |  | > 100 | > 100 | > 100 | > 100 |  | > 100 | > 100 | 
Cc1ccc(S(=O)(=O)N(CC(O)COc2ccccc2)c2c(F)c(F)c(F)c(F)c2F)cc1 (stereo not drawn) | 28.6 | 36.5 | 30.7 | 33 | 37.7 | 71.1 | 23.2 | 31.6 | 53.1 | 34.1 |  | 33.5 | 37.4 | 
O=C1O/C(=C(\Br)c2ccc([N+](=O)[O-])cc2)c2ccccc21 | > 100 | > 100 |  | > 81.5 | > 100 | > 100 | > 100 | > 100 | > 100 | > 100 | > 100 | > 100 | > 100 | > 100
COc1ccc(Nc2nc3ccccc3nc2-c2cccs2)cc1OC | > 10 | > 10 | > 10 | > 10 | > 10 | > 10 | > 10 | > 10 |  | > 10 | > 10 | > 10 | > 10 | > 10
NC(=O)N/N=C(\Cc1cc(=O)oc2cc(O)ccc12)C(=O)Nc1ccccc1C(N)=O | > 100 | > 100 | > 100 | > 100 | > 100 | > 100 | > 100 | > 100 |  | > 100 | > 100 | > 100 | > 100 | > 100
Fc1ccc(/C=C2\COCC3=C2NC(=S)NC3c2ccc(F)cc2)cc1 (stereo not drawn) | 38.2 | 57.6 | 33.9 | 32.1 | 33.3 | 45.5 | 39.5 |  |  | 47 | 30.4 | 32.4 | 33.3 | 76.3
NC(CCC(=O)NC(CCC(=O)NO)C(=O)NCC(=O)O)C(=O)O (stereo not drawn) (γGlu-Glu(NHOH)-Gly-OH; configuration not given here) | > 100 | > 100 | > 100 | > 100 | > 100 | > 100 | > 100 | > 100 |  | > 100 | > 100 | > 100 | > 100 | > 100
CC(C)(C)c1ccc(O)c(C(O)c2ccccn2)c1 (stereo not drawn) | > 100 | > 100 | > 100 | > 100 | > 100 | > 100 | > 100 | > 100 | > 100 | 89.6 | > 100 | 26.4 | > 100 | 
Cc1cc2c(cc1Cl)SSc1cc(Cl)c(C)cc1S(=O)(=O)Nc1nc(N)nn1C(O)n1nc(N)nc1NS2(=O)=O | > 10 | > 10 |  | > 10 | > 10 | > 10 | > 10 | > 10 | > 10 | > 10 | > 10 |  | > 10 | > 10
CC(=O)Oc1ccc2c(c1)O/C(=C\c1ccc(N(C)C)cc1)C2=O |  | > 100 | > 100 | > 100 | > 100 | > 100 | > 100 | > 100 |  |  | > 100 | > 100 |  | > 100
CCOC(=O)Cn1nnc2ccc(Nc3nc4ccccc4nc3C(=O)OCC)cc21 | > 100 | 46.5 |  | > 100 | > 100 | > 100 | > 100 | > 100 | > 100 | > 100 | > 100 | > 100 | > 100 | > 100
O=c1[nH]c2c(C(F)(F)F)c(Cl)c(-c3ccccc3)nc2o1 | > 100 |  | 65.2 | > 100 | 32.4 | > 100 | > 100 | > 100 |  | 58.2 | 75.3 | > 100 | > 100 | > 100
CCN(CC)C1=Nc2ccccc2-n2ccnc2C1 | > 100 | > 100 | > 100 | > 100 | > 100 | > 100 | > 100 | > 100 |  | > 100 | > 100 | > 100 | > 100 | > 100
CC(C)NC1CCCCC2c3ccccc3C12O (stereo not drawn) | > 100 | > 100 |  | > 100 | > 100 | > 100 |  | > 100 | > 100 |  | > 100 | > 100 | > 100 | 
COc1ccc(/C=C2\C(=O)N(C(=O)c3ccc(NC(C)=O)cc3)N=C2C)cc1OC | > 100 | > 100 |  | > 100 | > 100 | > 100 |  | > 100 | > 100 | > 100 |  |  | > 100 | 
Cc1ccc(N=NC(=Nc2ccc(F)cc2)c2ccc(N(CCC#N)CCC#N)cc2)cc1 |  | > 100 | > 100 | > 100 | > 100 | > 100 | > 100 | > 100 |  | > 100 | > 100 | > 100 | > 100 | > 100
O=c1[nH]nc(-c2ccc3ccccc3c2)[nH]1 | > 100 | > 100 |  | > 100 | > 100 | > 100 | > 100 | > 100 | > 100 | > 100 | > 100 | > 100 | > 100 | > 100
O=[N+]([O-])C1=Cc2c(O)ccc(O)c2C2OC=CC12 (stereo not drawn) | 42.6 | 49.5 | 40.1 | 37 | 35 | 30.3 | 30.9 | > 74.5 |  | 51.5 | 29.4 | 15.9 | 32.2 | 45.4
Fc1ccc(F)c(C=NC23CC4CC(CC(C4)C2)C3)c1 | > 10 | > 10 |  | > 10 | > 10 | > 10 | > 10 | > 10 | > 10 | > 10 | > 10 |  | > 10 | > 10
COC(=O)c1sc2nc(Nc3ccccc3)c(=Nc3ccccc3)sc2c1C | > 100 | > 100 | > 100 | > 100 | > 100 | > 100 |  | > 100 | > 100 | > 100 | 80.5 | > 100 | > 100 | > 100
CN1CCN(c2n[nH]c(=O)c3c2nnn3Cc2ccccc2)CC1 | > 100 | > 100 | > 100 | > 100 | > 100 | > 100 | > 100 | > 100 | > 100 |  | > 100 |  | > 100 | 
CCN(CC)c1c(-c2c(OC(C)C)c(=O)c2=O)c(=O)n2ccsc2c1OC(C)=O | > 100 | > 100 | > 100 | > 100 | > 100 | > 100 |  | > 100 | > 100 | > 100 |  | > 100 | > 100 | > 100
O=C1c2cccnc2S(=O)(=O)N1c1ccc(Br)cc1 | > 100 | > 100 | > 100 | > 100 | > 100 | > 100 |  | > 100 | > 100 | > 100 | > 100 | > 100 | > 100 | > 100
CCCCCCCCCCCCCOCCOCCOCCCCC(O)CCCCCCCCCC1=C[C@H](C)OC1=O (stereo partly drawn) | 42.6 | > 100 | 50.5 | 48 | 71.4 | 22.5 | > 100 | 31.5 |  | 78.7 | 47.5 | 54 | 29.2 | 37.6
CCOC(=O)CCC(NC(=O)C(CC(=O)OC)NC(=O)OCc1ccccc1)C(=O)NC(CC(=O)OC)C(=O)NC(CCC(=O)OCC)C(=O)NC(CC(=O)OC)C(=O)NC(CCC(=O)OCC)C(=O)NC(CC(=O)OCC)C(=O)OCC (stereo not drawn) (Cbz-D(OMe)E(OEt)D(OMe)E(OEt)D(OMe)E(OEt)D(OEt)-OEt; configuration not given here) | > 100 |  | > 100 | > 100 | > 100 | > 100 | > 100 |  | > 100 | > 100 |  | > 100 |  | > 100
CC(C)C(Sc1nc(-c2ccccc2)c(-c2ccccc2)[nH]1)C(=O)N/N=C/c1ccc(Cl)cc1 (stereo not drawn) | 28.9 | 67.6 |  | 59.3 | 36.3 | > 100 |  | 45.2 | 47.7 | 52.4 |  | 40.1 | 47.5 | 48.8
